Read-outs that look alike come from different tables or passages of the source.
Experiments:
Assay type in all cases: in vivo
[1] = system: tomato root gall nematode (Meloidogyne incognita); experiment: Tomato root gall nematode test (II. stage infective larvae, treated NGM agar plate); details: 72 hours; for mortality at 200 µg/mL / mortality at 400 µg/mL: Meloidogyne incognita
Protocol: (6) Root gall nematode The test is carried out on II. stage infective larvae, which are collected from the root of tomato plant, placed on a filter and incubated in sterile water at 25° C. The hatched larvae are collected every 24 hours and immediately placed onto the treated nutrient medium. As nutrient medium NGM agar plate free from bacterial is used. 0.5 ml of the acetoneous solution of the test compound is applied onto the surface of the plate in a Petri-dish. After the acetone has evaporated 5 μl of the larva suspension is applied onto each plate. After 72 hours the surviving and killed insects are counted.

Caenorhabditis elegans = Caenorhabditis elegans test (treated NGM agar plate, young adults)
Protocol: (5) Caenorhabditis elegans 0.5 ml of the acetonous solution of the test compound is applied onto a NGM agar plate free from bacteria in a Petri dish. After the acetone has dried 25-30 young adults are placed on the plate. After 24 hours the surviving and killed insects are counted.

[2] = system: cotton bug (Dysdercus fasciatus); experiment: Cotton bug test (topical application on II. stage larvae); details: for AJH effect: adultoid symptoms
Protocol: (1) Cotton bug test A dilution series is prepared from the test compound with acetone and 0.2 μl of each dilution is topically applied onto the back part of larvae of the II. stage of growth with the aid of a Hamiltion syringe. The active ingredient is absorbed through the cuticula. The animals are kept in a large glass and fed with cotton grains and water. After adult shedding the surviving insects are observed for eventual adultoid symptoms, the egg-reproduction and the development of the ovules is evaluated too. (Remark: in the cotton bug test 50 insects are used).

[3] = system: cabbage butterfly (Pieris brassicae); experiment: Cabbage butterfly test (sprayed cabbage seedlings); details: 50 EC; for pest or weed control at 0.01 % / pest or weed control at 0.1 %: Pieris brassicae, read-out: Killing rate of larvae
Protocol: From the 50 EC of the test compound a diluted series is prepared with water and the host seedlings (cabbage) are sprayed with this composition until the spray runs down. The spray is allowed to dry whereupon 20 young larvae of the II. stage are placed on each treated plant and the seedlings are kept under so-called "long-day" illumination (18 hours of illumination and 6 hours of darkness). The nibbled plants are replaced by similarly sprayed plants if necessary. The killing rate of the insects, the growth rate of the larvae and the morphological deformations of the surviving nymphs and adults are registered.
In the 50 EC compositions the concentration of compounds 23 and 25 amounts to 0.01% and that of the other compounds to 0.1%.

[4] = system: domestic fly (Musca domestica); experiment: Domestic fly test (larvae in treated nutrient medium); details: 0.1% related to milk, 0.05% related to total nutrient medium
Protocol: The fly larvae are grown on a nutrient medium of the following composition: 2 ml of milk; 2 ml of water; 2 g of wheat bran; 0.1 ml of saturated alcoholic nipagin solution.
The nutrient medium is filled into cylindrical glass vials (30×100 mm) and 25 fly larvae are raised in each vial. The test compound is dissolved in milk; the end concentration (related to milk) amounts to 0.1% which corresponds to 0.05% (related to the total nutrient medium). The solution of the active ingredient is admixed with the nutrient medium whereupon […] of domestic fly larvae of the I. stage are placed into each vial and the vials are closed with a hard cotton-wool stopper. The nymphs emerging from the larvae are collected in each vial, counted and kept in a Petri dish (diameter 25 mm) until flies hatch from the nymphs. The hatched flies are counted.

[5] = 200 μg/ml, first test, read-out: mortality 1.
[6] = 200 μg/ml, second test, read-out: mortality 2.
[7] = 200 μg/ml, read-out: mortality Average
[8] = 400 μg/ml, first test, read-out: mortality 1.
[9] = 400 μg/ml, second test, read-out: mortality 2.
[10] = 400 μg/ml, read-out: mortality Average
[11] = Caenorhabditis elegans, 24 h, read-out: Lethality

CCOc1cc2c(cc1OCC)OC(C)(C)C=C2 [Compound 2]
Nematocidal effect ([1]; 200 μg/ml): strong | Nematocidal effect ([1]; 400 μg/ml): strong | mortality at 200 µg/mL [1, 5]: 74% | mortality at 200 µg/mL [1, 6]: 69% | mortality at 200 µg/mL [1, 7]: 72% | mortality at 400 µg/mL [1, 8]: 83% | mortality at 400 µg/mL [1, 9]: 90% | mortality at 400 µg/mL [1, 10]: 87%

CC1(C)C=Cc2cc3c(cc2O1)OCO3 [Compound 4]
Size of descendant population (Caenorhabditis elegans; 100 μg/ml): no descendants | Size of descendant population (Caenorhabditis elegans; 200 μg/ml): no descendants | Size of descendant population (Caenorhabditis elegans; 400 μg/ml): no descendants | mortality at 100 µg/mL (Caenorhabditis elegans; [11]): 100% | mortality at 200 µg/mL (Caenorhabditis elegans; [11]): 100% | mortality at 400 µg/mL (Caenorhabditis elegans; [11]): 100% | Nematocidal effect ([1]; 200 μg/ml): strong | Nematocidal effect ([1]; 400 μg/ml): strong | mortality at 200 µg/mL [1, 5]: 84% | mortality at 200 µg/mL [1, 6]: 69% | mortality at 200 µg/mL [1, 7]: 77% | mortality at 400 µg/mL [1, 8]: 96% | mortality at 400 µg/mL [1, 9]: 92% | mortality at 400 µg/mL [1, 10]: 94%

C=CCOc1cc2c(cc1OCC=C)OC(C)(C)C=C2 [Compound 5]
Size of descendant population (Caenorhabditis elegans; 200 μg/ml): some descendants | Size of descendant population (Caenorhabditis elegans; 400 μg/ml): no descendants | Nematocidal effect ([1]; 400 μg/ml): medial | mortality at 200 µg/mL [1, 5]: 18% | mortality at 200 µg/mL [1, 6]: 29% | mortality at 200 µg/mL [1, 7]: 23% | mortality at 400 µg/mL [1, 8]: 45% | mortality at 400 µg/mL [1, 9]: 43% | mortality at 400 µg/mL [1, 10]: 44%

C=CCOc1cc2c(cc1OC)C=CC(C)(C)O2 [Compound 7]
Size of descendant population (Caenorhabditis elegans; 200 μg/ml): no descendants | Size of descendant population (Caenorhabditis elegans; 400 μg/ml): no descendants | mortality at 200 µg/mL (Caenorhabditis elegans; [11]): 90% | mortality at 400 µg/mL (Caenorhabditis elegans; [11]): 90%

COc1cc2c(cc1OC(C)C)OC(C)(C)C=C2 [Compound 8]
LD50 [2]: 0.45 μg/insect | Sterilizing effect [2]: 0.2 μg/insect | AJH effect [2]: 1 μg/insect | Size of descendant population (Caenorhabditis elegans; 200 μg/ml): reduced | Size of descendant population (Caenorhabditis elegans; 400 μg/ml): no descendants | mortality at 200 µg/mL (Caenorhabditis elegans; [11]): 70% | mortality at 400 µg/mL (Caenorhabditis elegans; [11]): 80%

CC(C)=CCOc1cc2c(cc1OCC=C(C)C)OC(C)(C)C=C2 [Compound 10]
LD50 [2]: 0.6 μg/insect

CCCCOc1cc2c(cc1OCCCC)OC(C)(C)C=C2 [Compound 14]
Size of descendant population (Caenorhabditis elegans; 200 μg/ml): reduced | Size of descendant population (Caenorhabditis elegans; 400 μg/ml): reduced | mortality at 200 µg/mL (Caenorhabditis elegans; [11]): 30% | mortality at 400 µg/mL (Caenorhabditis elegans; [11]): 80%

CCC(C)Oc1cc2c(cc1OC)C=CC(C)(C)O2 (stereo not shown) [Compound 20]
LD50 [2]: 0.4 μg/insect | AJH effect [2]: 0.1 μg/insect

COc1cc2c(cc1OCC(C)C)OC(C)(C)C=C2 [Compound 21]
LD50 [2]: 0.4 μg/insect

COc1ccc2c(c1)OC(C)(C)C=C2 [Compound 23, 7-methoxy-2,2-dimethyl-2H-chromene, reference compound]
Survival adult ([3]; 0.01%): 50% | Survival nymph ([3]; 0.01%): 59% | pest or weed control at 0.01 % ([3]; 0.01%): 41% | Survival adult [4]: 33.3% | Survival nymph [4]: 100% | Size of descendant population (Caenorhabditis elegans; 200 μg/ml): reduced | Size of descendant population (Caenorhabditis elegans; 400 μg/ml): no descendants

CCCOc1ccc2c(c1)OC(C)(C)C=C2 [Compound 25]
Survival adult ([3]; 0.01%): 39% | Survival nymph ([3]; 0.01%): 48% | pest or weed control at 0.01 % ([3]; 0.01%): 52%

CCC(C)Oc1ccc2c(c1)OC(C)(C)C=C2 (stereo not shown) [Compound 28]
Survival adult [4]: 25.6% | Survival nymph [4]: 115%

CC(C)COc1ccc2c(c1)OC(C)(C)C=C2 [Compound 29]
Survival adult [4]: 28.2% | Survival nymph [4]: 100%

CCOc1cc2c(cc1OC)OC(C)(C)C=C2 [Compound 34]
Survival adult [4]: 12.8% | Survival nymph [4]: 85% | Remarks (Caenorhabditis elegans; 200 μg/ml): paralysation | Size of descendant population (Caenorhabditis elegans; 200 μg/ml): reduced | Remarks (Caenorhabditis elegans; 400 μg/ml): paralysation | Size of descendant population (Caenorhabditis elegans; 400 μg/ml): some descendants | mortality at 200 µg/mL (Caenorhabditis elegans; [11]): 15% | mortality at 400 µg/mL (Caenorhabditis elegans; [11]): 23%

COc1ccc2c(c1OC)OC(C)(C)C=C2 [Compound 35]
Survival adult [4]: 0% | Survival nymph [4]: 12% | Remarks (Caenorhabditis elegans; 200 μg/ml): paralysation | Size of descendant population (Caenorhabditis elegans; 200 μg/ml): reduced | Remarks (Caenorhabditis elegans; 400 μg/ml): paralysation | Size of descendant population (Caenorhabditis elegans; 400 μg/ml): no descendants | mortality at 200 µg/mL (Caenorhabditis elegans; [11]): 67% | mortality at 400 µg/mL (Caenorhabditis elegans; [11]): 100%

C#CCOc1ccc2c(c1)OC(C)(C)C=C2 [Compound 37]
Remarks (Caenorhabditis elegans; 200 μg/ml): paralysation | Size of descendant population (Caenorhabditis elegans; 200 μg/ml): no descendants | Remarks (Caenorhabditis elegans; 400 μg/ml): paralysation | Size of descendant population (Caenorhabditis elegans; 400 μg/ml): no descendants | mortality at 200 µg/mL (Caenorhabditis elegans; [11]): 100% | mortality at 400 µg/mL (Caenorhabditis elegans; [11]): 100%

CCOc1cc(C)c2c(c1)OC(C)(C)C=C2 [Compound 38]
Survival adult ([3]; 0.1%): 19% | Survival nymph ([3]; 0.1%): 19% | pest or weed control at 0.1 % ([3]; 0.1%): 81% | Survival adult [4]: 14.8% | Survival nymph [4]: 40%

Cc1cc(OC(C)C)cc2c1C=CC(C)(C)O2 [Compound 40]
Survival adult [4]: 27.6% | Survival nymph [4]: 50.9%

CCC(C)Oc1cc(C)c2c(c1)OC(C)(C)C=C2 (stereo not shown) [Compound 41]
Survival adult ([3]; 0.1%): 14% | Survival nymph ([3]; 0.1%): 19% | pest or weed control at 0.1 % ([3]; 0.1%): 11% | Survival adult [4]: 12.5% | Survival nymph [4]: 25.4%

Cc1cc(OC2CCCC2)cc2c1C=CC(C)(C)O2 [Compound 43]
pest or weed control at 0.1 % ([3]; 0.1%): 100% | Survival adult [4]: 31.8% | Survival nymph [4]: 52.7%

C#CCOc1cc(C)c2c(c1)OC(C)(C)C=C2 [Compound 44]
Survival adult ([3]; 0.1%): 17% | Survival nymph ([3]; 0.1%): 17% | pest or weed control at 0.1 % ([3]; 0.1%): 83% | Survival adult [4]: 10.6% | Survival nymph [4]: 50.9% | Remarks (Caenorhabditis elegans; 200 μg/ml): paralysation | Size of descendant population (Caenorhabditis elegans; 200 μg/ml): some descendants | Remarks (Caenorhabditis elegans; 400 μg/ml): paralysation | Size of descendant population (Caenorhabditis elegans; 400 μg/ml): no descendants

CCCOc1cc(OC)c2c(c1)OC(C)(C)C=C2 [Compound 46]
Survival adult ([3]; 0.1%): 12% | Survival nymph ([3]; 0.1%): 12% | pest or weed control at 0.1 % ([3]; 0.1%): 88% | Survival adult [4]: 6.4% | Survival nymph [4]: 9.1%

COc1cc(OC(C)C)cc2c1C=CC(C)(C)O2 [Compound 47]
Survival adult ([3]; 0.1%): 9% | Survival nymph ([3]; 0.1%): 13% | pest or weed control at 0.1 % ([3]; 0.1%): 87%

CCC(C)Oc1cc(OC)c2c(c1)OC(C)(C)C=C2 (stereo not shown) [Compound 48, 5-methoxy-7-sec. butoxy-2,2-dimethyl-2H-chromene]
pest or weed control at 0.1 % ([3]; 0.1%): 100%

COc1cc(OCC(C)C)cc2c1C=CC(C)(C)O2 [Compound 49]
pest or weed control at 0.1 % ([3]; 0.1%): 100% | Survival adult [4]: 0% | Survival nymph [4]: 0%

CCOc1ccc2c(c1OC)OC(C)(C)C=C2 [Compound 50]
Survival adult ([3]; 0.1%): 24% | Survival nymph ([3]; 0.1%): 24% | pest or weed control at 0.1 % ([3]; 0.1%): 76% | Survival adult [4]: 4.2% | Survival nymph [4]: 5.4% | Size of descendant population (Caenorhabditis elegans; 200 μg/ml): reduced | Size of descendant population (Caenorhabditis elegans; 400 μg/ml): no descendants

COc1c(OC(C)C)ccc2c1OC(C)(C)C=C2 [Compound 52]
Survival adult ([3]; 0.1%): 32% | Survival nymph ([3]; 0.1%): 36% | pest or weed control at 0.1 % ([3]; 0.1%): 64% | Survival adult [4]: 0% | Survival nymph [4]: 12% | Size of descendant population (Caenorhabditis elegans; 200 μg/ml): reduced | Size of descendant population (Caenorhabditis elegans; 400 μg/ml): reduced

CCC(C)Oc1ccc2c(c1OC)OC(C)(C)C=C2 (stereo not shown) [Compound 53, 7sec. butoxy-8-methoxy-2,2-dimethyl-2chromene]
pest or weed control at 0.1 % ([3]; 0.1%): 100% | Size of descendant population (Caenorhabditis elegans; 200 μg/ml): reduced | Size of descendant population (Caenorhabditis elegans; 400 μg/ml): reduced

COc1c(OCC(C)C)ccc2c1OC(C)(C)C=C2 [Compound 54]
Survival adult ([3]; 0.1%): 7% | Survival nymph ([3]; 0.1%): 7% | pest or weed control at 0.1 % ([3]; 0.1%): 93%
